This experiment has as its system P. acnes Group 1, 2 and 3 isolates. In words: Growth of P. acnes isolates on semi-selective Brain Heart Infusion agar containing antibiotics. The format is cell-based, Propionibacterium acnes. As to the method:
Brain Heart Infusion Agar (Oxoid Australia Ltd) was prepared containing 0.5% Tween 80 and adjusted to a pH of 6.0 using hydrochloric acid prior to autoclaving. […] Both antibiotics were prepared freshly immediately prior to use, and the agar plates were incubated at 37° C. for 24 hrs to ensure sterility then stored at 4° C. and used within 3 weeks of preparation.
Inclusion of gentamicin as a selective agent and Tween 80 as a growth stimulant for P. acnes was previously discussed by Kishishita (1980).

Take gentamicin: the “growth of some strains of P. acnes Groups 2 and 3” value (at 6 μg/mL furazolidone and 4 μg/mL gentamicin in the semi-selective medium) is reported as “noticeable growth inhibition”. For the same substance, where the note is “semi-selective agar, after 7 days of anaerobic incubation”, the “maximal concentration that allowed reasonable growth” value stood at 4 µg/mL.
